Patent US20250145633A1, “SUBSTITUTED FURANOPYRIMIDINE COMPOUNDS AS PDE1 INHIBITORS” (Dart NeuroScience, LLC, priority 2017, published 2025)

Biological target: human PDE1B enzyme (Homo sapiens (Human), UniProt Q01064)
Test: IMAP TR-FRET PDE1B enzymatic assay
Assay type: biochemical
Settings: negative log of half-maximal molar inhibitory concentration; 200 nM FAM-cAMP; values given as bins; read-out: PDE1b (pIC50) (converted)
How it was run: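 Full-length GST-tagged human PDE1B (250 pg/well) in IMAP BSA buffer with 10 U/ml calmodulin and 2.5 mM CaCl2; compound pre-incubated 5 min at room temperature, then 200 nM (final) FAM-cAMP for 30 min. IMAP binding reagent/Tb added, 1 h; TR-FRET 520/490 ratio read. IC50 from sigmoidal dose-response fit.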

Compound	IC50
Cc1oc2ncnc(NC3(C)CC3)c2c1C(=O)N1CC[C@@H]2OCC[C@@H]21 [Example 155, 5-[(3aS,6aS)-Hexahydro-2H-furo[3,2-b]pyrrole-4-carbonyl]-6-methyl-N-(1-methylcyclopropyl)furo[2,3-d]pyrimidin-4-amine]	10 to 100 nM
Cc1oc2ncnc(NC3(C)CC3)c2c1C(=O)N1CCCN(c2ccccc2F)CC1 [Example 156, 5-[4-(2-Fluorophenyl)-1,4-diazepane-1-carbonyl]-6-methyl-N-(1-methylcyclopropyl)furo[2,3-d]pyrimidin-4-amine]	10 to 100 nM
Cc1oc2ncnc(NC3(C)CC3)c2c1C(=O)N1CCCN(c2ccccc2)CC1 [Example 157, 6-Methyl-N-(1-methylcyclopropyl)-5-(4-phenyl-1,4-diazepane-1-carbonyl)furo[2,3-d]pyrimidin-4-amine]	100 to 1000 nM
Cc1oc2ncnc(NC3(C)CC3)c2c1C(=O)N1CCCN(c2ccccn2)CC1 [Example 158, 6-Methyl-N-(1-methylcyclopropyl)-5-[4-(pyridin-2-yl)-1,4-diazepane-1-carbonyl]furo[2,3-d]pyrimidin-4-amine]	100 to 1000 nM
COc1ccc(N2CCCN(C(=O)c3c(C)oc4ncnc(NC5(C)CC5)c34)CC2)cc1 [Example 159, 5-[4-(4-Methoxyphenyl)-1,4-diazepane-1-carbonyl]-6-methyl-N-(1-methylcyclopropyl)furo[2,3-d]pyrimidin-4-amine]	100 to 1000 nM
Cc1oc2ncnc(NC3(C)CC3)c2c1C(=O)N1CCN(c2ccnc(F)c2)CC1 [Example 160, 5-[4-(2-fluoropyridin-4-yl)piperazine-1-carbonyl]-6-methyl-N-(1-methylcyclopropyl)furo[2,3-d]pyrimidin-4-amine]	10 to 100 nM
Cc1oc2ncnc(NC3(C)CC3)c2c1C(=O)N1CCN(c2cc(F)ncn2)CC1 [Example 161, 5-[4-(6-Fluoropyrimidin-4-yl)piperazine-1-carbonyl]-6-methyl-N-(1-methylcyclopropyl)furo[2,3-d]pyrimidin-4-amine]	10 to 100 nM
Cc1oc2ncnc(NC3(C)CC3)c2c1C(=O)N1CCN(c2ccnc(F)n2)CC1 [Example 162, 5-[4-(2-Fluoropyrimidin-4-yl)piperazine-1-carbonyl]-6-methyl-N-(1-methylcyclopropyl)furo[2,3-d]pyrimidin-4-amine]	10 to 100 nM
Cc1oc2ncnc(NC3(C)CC3)c2c1C(=O)NCc1ccncc1F [Example 163, N-[(3-Fluoropyridin-4-yl)methyl]-6-methyl-4-[(1-methylcyclopropyl)amino]furo[2,3-d]pyrimidine-5-carboxamide]	10 to 100 nM
Cc1oc2ncnc(NC3(C)CC3)c2c1C(=O)NCc1ccnc(F)c1 [Example 164, N-[(2-Fluoropyridin-4-yl)methyl]-6-methyl-4-[(1-methylcyclopropyl)amino]furo[2,3-d]pyrimidine-5-carboxamide]	10 to 100 nM
Cc1oc2ncnc(NC3(C)CC3)c2c1C(=O)NC1CCCC1 [Example 165, N-Cyclopentyl-6-methyl-4-[(1-methylcyclopropyl)amino]furo[2,3-d]pyrimidine-5-carboxamide]	10 to 100 nM
CCCCCNC(=O)c1c(C)oc2ncnc(NC3(C)CC3)c12 [Example 167, 6-Methyl-4-[(1-methylcyclopropyl)amino]-N-pentylfuro[2,3-d]pyrimidine-5-carboxamide]	10 to 100 nM
Cc1oc2ncnc(NC3(C)CC3)c2c1C(=O)NCCC(C)C [Example 168, 6-Methyl-N-(3-methylbutyl)-4-[(1-methylcyclopropyl)amino]furo[2,3-d]pyrimidine-5-carboxamide]	10 to 100 nM
CCC(CC)NC(=O)c1c(C)oc2ncnc(NC3(C)CC3)c12 [Example 169, 6-Methyl-4-[(1-methylcyclopropyl)amino]-N-(pentan-3-yl)furo[2,3-d]pyrimidine-5-carboxamide]	10 to 100 nM
Cc1oc2ncnc(NC3(C)CC3)c2c1C(=O)NC(C)C(C)C (stereo not drawn) [Example 170, 6-Methyl-N-(3-methylbutan-2-yl)-4-[(1-methylcyclopropyl)amino]furo[2,3-d]pyrimidine-5-carboxamide]	10 to 100 nM
